Laboratory results as given in BindingDB's records for patent US20240208953 (Novartis, 2024).
pIC50: −log10 of the molar value.

Molecular target: Potassium voltage-gated channel subfamily H member 2 (Homo sapiens, UniProt Q12809)
Test: hERG Qpatch Assay
Method: hERG currents were recorded using the Qpatch automated patch clamp systems (Sophion Bioscience Inc., North Brunswick, NJ) in the whole (single) cell configuration. hERG expressing CHO-K1 cells were harvested with Detachin (Genlantis) and stored in the modified serum-free SFM-2 media (Life Technologies) at room temperature. The extracellular solution contained (in mM) NaCl (145), KCl (4), MgCl2 (1), CaCl2 (2), and HEPES (10), pH 7.4, with NaOH. The intracellular solution contained KCl (135), MgCl2 (1.75), CaCl2 (5.4), EGTA (10), K2-ATP (4), and HEPES (10), pH 7.2, with KOH. After whole cell configuration was achieved, the cell was held at +-90 mV, and a 0.1 s pulse to +-50 mV was delivered to measure the leaking current, which was subtracted from the tail current online. Then the cell was depolarized to +20 mV for 4 s (prepulse), followed by a 4 s test pulse to +-50 mV to reveal the hERG tail current. To monitor changes in the current amplitude, this voltage protocol was repeatedly applied every 20 s. Test compounds were first diluted in DMSO for six dose-response experiments and then dissolved in the extracellular solution using Freedom EVO liquid handling robotic system (Tecan, M nnedorf, Switzerland). The final DMSO concentration in samples was 0.3% v/v. Amitriptyline (Sigma) was tested as a positive control.

Sequence of Potassium voltage-gated channel subfamily H member 2 (Q12809 whole entry): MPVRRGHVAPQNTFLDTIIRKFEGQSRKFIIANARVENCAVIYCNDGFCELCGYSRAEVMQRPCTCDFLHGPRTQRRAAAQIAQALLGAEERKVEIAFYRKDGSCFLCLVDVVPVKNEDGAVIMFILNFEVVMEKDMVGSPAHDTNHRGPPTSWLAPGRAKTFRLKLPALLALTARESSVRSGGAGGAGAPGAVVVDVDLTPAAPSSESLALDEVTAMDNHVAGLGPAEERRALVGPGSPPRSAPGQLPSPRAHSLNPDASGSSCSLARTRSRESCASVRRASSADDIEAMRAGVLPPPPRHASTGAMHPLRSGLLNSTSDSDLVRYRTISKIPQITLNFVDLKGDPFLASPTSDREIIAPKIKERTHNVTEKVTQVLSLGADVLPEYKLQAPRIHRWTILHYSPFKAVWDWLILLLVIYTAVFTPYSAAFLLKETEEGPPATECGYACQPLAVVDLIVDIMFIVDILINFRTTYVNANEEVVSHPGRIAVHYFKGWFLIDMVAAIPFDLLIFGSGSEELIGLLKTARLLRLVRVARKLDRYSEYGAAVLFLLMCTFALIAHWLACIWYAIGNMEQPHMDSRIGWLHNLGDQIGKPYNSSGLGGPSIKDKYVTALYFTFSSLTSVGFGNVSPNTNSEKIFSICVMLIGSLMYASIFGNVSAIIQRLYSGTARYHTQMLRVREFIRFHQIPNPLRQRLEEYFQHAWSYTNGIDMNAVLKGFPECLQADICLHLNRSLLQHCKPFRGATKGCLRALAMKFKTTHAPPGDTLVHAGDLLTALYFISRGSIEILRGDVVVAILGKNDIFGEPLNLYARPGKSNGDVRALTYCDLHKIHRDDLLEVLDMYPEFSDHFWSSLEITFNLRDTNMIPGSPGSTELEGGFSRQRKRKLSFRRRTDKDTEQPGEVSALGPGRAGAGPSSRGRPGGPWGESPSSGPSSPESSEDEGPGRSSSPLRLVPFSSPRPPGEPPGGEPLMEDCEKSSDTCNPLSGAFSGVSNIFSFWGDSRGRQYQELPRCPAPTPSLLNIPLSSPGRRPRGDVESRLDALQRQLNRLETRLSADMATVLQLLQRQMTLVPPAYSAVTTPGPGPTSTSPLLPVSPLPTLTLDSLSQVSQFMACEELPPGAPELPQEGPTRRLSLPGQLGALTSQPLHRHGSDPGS

O=C1CCc2cc([C@H](O)CN3C[C@H]4C[C@H](Oc5ccccc5F)C[C@@]4(O)C3)cc(F)c2N1 [US20240208953, Example 29B]
pIC50: 4.90

O=C1Nc2c(F)cc([C@@H](O)CN3C[C@H]4C[C@H](Oc5ccccc5)C[C@@]4(O)C3)cc2CO1 [US20240208953, Example 28A]
pIC50: 5.62
